The values that follow come from US9655828B2, “Glucuronolactone derivatives as self-tanning substances” (Merck Patent GmbH, priority 2013, dated 2017).

The nature of experiment [1]: Liquid skin model (reaction with L-lysine, L*a*b* values). The conditions noted are these: for L* / a* / b*: 1 mmol substance + 1 mmol L-lysine in 100 ml phosphate-buffered water (pH=7)/ethylene glycol 6:94; for L* / a* / b* / L values compared with erythrulose or glucuronolactone: after 24 hours; for hue achieved: conclusion from a values. As for the experimental part: The mixture is subsequently made up to the mark with a mixture of 6 ml of phosphate-buffered water (pH=7) and 94 ml of ethylene glycol. The reaction is observed with vigorous stirring, and the L*a*b* values are determined after 24 hours.

A short description of experiment [2]: Colouring test on merino wool balls. The conditions noted are these: 1 mmol substance in 100 ml buffer (pH 7)/ethylene glycol 6:94, RT, 24 h, then washed and dried; compared with untreated sample. On the procedure: In each case, 1 mmol of the substance to be tested are weighed out into a 100 ml conical flask with ground-glass joint:
A merino wool ball with the size of a grape and a magnetic stirrer are then added to each conical flask.
A mixture of 6% by vol. of buffer (ph7) and 94% by vol. of ethylene glycol is then prepared, 100 ml of this mixture are added to each conical flask and stirred at RT for 24 h.
After 24 h, the wool balls are washed firstly with water, then with warm washing-powder solution and again with water and dried.
This colouring result can also be applied to hair, since merino wool, like hair, is built up from proteins (keratins) and the outermost layer is in each case the cuticle.

Experiment [3] relates to histological explants from lower abdomen tissue. Nature of the experiment: Ex-vivo study: chromametric measurement of skin explants (ITA). More on the design: species or system human. Particulars: 4% substance, 30 μl applied daily for 2 h. On the procedure:
24 histological explants having an average diameter of 10 mm are prepared from the lower abdomen tissue of a person. The pieces of tissue are kept in BEM medium (BIO-EC's Explants Medium) at 37° C. in a humid atmosphere comprising 5% of CO2.
The tissue is divided into 8 batches of 3 explants each: • A negative control (untreated sample, treated only with the vehicle Mygliol)→E • A positive control (4% dihydroxyacetone)→R1 • A positive control (4% erythrulose)→R2 • Glucuronolactone (4%)→P1 • Compound of the formula (Ig) (4%)→P2 • Compound of the formula (Ia) (4%)→P3
30 μl of the substance solutions are applied on 10 consecutive days using a round filter paper and left to act for 2 h. On days 1, 3 and 7, the explants are measured chromametrically.
The colour measurements are carried out using a Minolta CR-300 Chroma-meter, and the L, a and b values are read off correspondingly on the instrument.
In 1931, a test series was carried out by the CIE (Commision Internationale de L'Eclairage), where the “2-degree standard observer” was defined. A colour area is present here which is viewed at a viewing angle of 2 degrees. This viewing angle is used as standard in the chromametric measurement. • Irradiation source D65, corresponding to daylight • Region of the measurement: 3 mm • Parameters used: L*a*b*
The sample is placed on the bearing rail with the epidermis facing downwards. The irradiation is carried out from the underside through the area indicated (3 mm).
In the colorimetric determinations <<L a b>>, the L value determines the contrast of the skin. If the L value drops, the skin appears darker.
ITA is defined as arctang[(L-50)/b]. If the ITA index increases, the skin appears paler.

Take `COc1ccc(/C=C/C(=O)OC2C(=O)OC3C4OC(C)(C)OC4OC23)cc1` (centres unmarked) [Compound (Ia), 2,2-Dimethyl-5-oxohexahydrofuro[2′,3′:4,5]furo[2,3-d]-1,3-dioxol-6-yl(E)-3-(4-methoxyphenyl)acrylate]: in experiment [1], the “L*” value stood at 66.34, the “a*” value came out at 34.88 and the “b*” value was determined as 105.16. Further, in experiment [1] (in words), the “L values compared with erythrulose or glucuronolactone” value was “lower L values than erythrulose or glucuronolactone” and the hue achieved result is “shifted more towards red”. Besides, the “coloration of wool samples” value in experiment [2] is recorded as “orange-yellow coloration”. In addition, in experiment [3], the “Day 1 (ITA value)” value is −6%, the “Day 3 (ITA value)” value was −5% and the “Day 7 (ITA value)” value is listed as −10%.
On to `CC1(C)OC2OC3C(OC(=O)c4ccccc4)C(=O)OC3C2O1` (centres unmarked) [Compound (Ig)], for which, in experiment [1], the “L*” value is 64.09, the “a*” value turned out to be 36.87 and the “b*” value is reported as 103.8. In experiment [1] (in words), the “L values compared with erythrulose or glucuronolactone” value is recorded as “lower L values than erythrulose or glucuronolactone” and the hue achieved entry was “shifted more towards red”. Also, the “coloration of wool samples” value in experiment [2] is given as “yellow coloration”.
As to `CC(=O)OC1C(=O)OC2C3OC(C)(C)OC3OC12` (centres unmarked) [Compound (Io), 2,2-Dimethyl-5-oxohexahydrofuro[2′,3′:4,5]furo[2,3-d]-1,3-dioxol-6-yl acetate], in experiment [1], the “L*” value is 87.51, the “a*” value worked out at 2.41 and the “b*” value came to 92.10. For the same compound, in experiment [1] (in words), the “L values compared with erythrulose or glucuronolactone” value is reported as “lower L values than erythrulose or glucuronolactone”. For the same compound, the “coloration of wool samples” value in experiment [2] was “pale-yellow coloration”.
For the compound `O=C(CO)CO` [DHA, 1,3-dihydroxyacetone], in experiment [1], the “L*” value was found to be 34.95, the “a*” value is recorded as 24.91 and the “b*” value is reported as 57.45. Also, the “coloration of wool samples” value in experiment [2] is listed as “no coloration”. In experiment [3], the “Day 1 (ITA value)” value is −3%, the “Day 3 (ITA value)” value worked out at 0% and the “Day 7 (ITA value)” value was −1%.
As for `O=C(CO)[C@H](O)CO` [Erythrulose], in experiment [1], the “L*” value is given as 93.50, the “a*” value is −4.40 and the “b*” value worked out at 32.66. Further, in experiment [3], the “Day 1 (ITA value)” value stood at 4%, the “Day 3 (ITA value)” value is reported as −4% and the “Day 7 (ITA value)” value is reported as 4%.
Take `O=C[C@H](O)[C@H]1OC(=O)[C@@H](O)[C@H]1O` [Glucuronolactone]: in experiment [1], the “L*” value is on record as 94.30, the “a*” value is reported as −6.94 and the “b*” value stood at 38.68. Besides, the “colour effect compared with erythrulose or glucuronolactone” value in experiment [1] (identical concentration in the test formulation, in words) was “comparable colour effect to erythrulose”. In addition, the “coloration of wool samples” value in experiment [2] was “very pale-yellow coloration”. Also, in experiment [3], the “Day 1 (ITA value)” value is listed as 10%, the “Day 3 (ITA value)” value is 4% and the “Day 7 (ITA value)” value was −2%.
